Test results published in patent publication US7910559B2, “Decladinosyl-macrolides with anti-inflammatory activity” (GlaxoSmithKline istrazivacki centar Zagreb d.o.o., priority 2005, dated 2011).
Read-outs that look alike come from different tables or passages of the source.

How the values were obtained:
Assay type in all cases: cell-based
human IL-6 = test: Inhibition of IL-6 production by stimulated human peripheral blood leukocytes in vitro (ELISA); settings: Homo sapiens, Leukocyte, PBL, read-out: Percentage of inhibition of IL-6 production; for inhibition at 10 µM: compound 10 μM; for inhibition at 50 µM: compound 50 μM
Method: (§1) Substances, used in in vitro experiments, were dissolved in dimethyl sulfoxide (DMSO) (Kemika, Croatia) at concentrations of 50 mM and 10 mM and were further diluted to the final concentrations of […] in 1 mL Dulbecco's modified Eagle medium (DMEM) supplemented with 1% heat inactivated fetal bovine serum (FBS), 1% glutamax, 50 U/ml penicillin, 50 μg/ml streptomycin and 2.5 μg/mL Fungizone (amphotericin B). Media and all media supplements were purchased from Gibco, Australia, except FBS that was from Sigma, USA.
(§2) Peripheral blood leukocytes (PBL) were obtained from venous blood of healthy volunteers by sedimentation on 2% dextran T-500 (Amersham Biosciences, USA) and subsequent centrifugations of leukocyte-rich plasma.
(§3) Peripheral blood leukocytes (PBL), isolated as described above, were seeded in a 48-well plate at a concentration of 3-5×10^6 cell per well in culture medium consisting of RPMI 1640 medium (Institute of Immunology, Croatia) supplemented with 10% heat-inactivated fetal calf serum (FCS, Biowhittaker, USA), 100 U/ml penicillin (Gibco, Australia), 100 μg/ml streptomycin (Gibco, Australia) and 2 mM L-glutamine (Gibco, Australia), and preincubated with the tested compounds for 2 h at 37° C., in an atmosphere of 5% CO2, and 90% humidity. Afterwards, stimuli (Sigma, USA) were added to a final concentration of 2 μg/mL lipopolysaccharide (LPS), 1 μg/mL phorbol 12-myristate 13-acetate (PMA) or 120 μg/mL zymosan. Samples were incubated overnight under conditions described above. At the end of incubation supernatants were transferred to eppendorf tubes and centrifuged for 10 min at 1500 g. Concentrations of human TNF-α, IL-1β, IL-6 and IL-8 were determined in cell supernatants by sandwich ELISA, using capture and detection antibodies (R&D, USA) according to manufacturer's recommendations.
(§4) Inhibition (as percentage) was calculated using the following formula: % inhibition=(1−concentration of cytokines in sample/concentration of cytokines in positive control)×100 where “positive control” refers to stimulated samples not treated with substances.

Hep G2 = settings: human, 24 h
Method: (§5) Anti-inflammatory activity of compounds, i.e. observed inhibition of cytokine production and inhibition of proliferation in vitro, is not a consequence of their cytotoxicity.
(§6) Measurement of the succinate dehydrogenase activity in living cells was performed in order to assess the cytotoxicity of compounds of the invention. Cells were cultured for 24 hours in RPMI medium as described above at 37° C., in the presence of the tested compounds at concentrations of 50 μM and 12.5 μM. Afterwards, MTT [3-(4,5-dimethylthiazole-2-yl)-2,5-diphenyl tetrazolium bromide] (Promega, USA) as detection reagent was added and incubated for 0.5-2 hours. The amount of produced MTT-Formazan was determined spectrophotometrically at 490 nm (Mosmann, J. Immunol. Methods, 1983, 65: 55-63).
(§7) Percentage of viable cells was calculated using the following formula: % viable cells=[…]

A549 = settings: human, 24 h
Method: as §5, §6, §7

THP-1 = settings: human, 24 h
Method: as §5, §6, §7

human TNF-α = test: Inhibition of TNF-α production by stimulated human peripheral blood leukocytes in vitro (ELISA); settings: Homo sapiens, Leukocyte, PBL, read-out: Percentage of inhibition of TNF-α production; for inhibition at 10 µM: compound 10 μM; for inhibition at 50 µM: compound 50 μM
Method: as §1, §2, §3, §4

human IL-8 = test: Inhibition of IL-8 production by stimulated human peripheral blood leukocytes in vitro (ELISA); settings: Homo sapiens, Leukocyte, PBL, read-out: Percentage of inhibition of IL-8 production; for inhibition at 10 µM: compound 10 μM; for inhibition at 50 µM: compound 50 μM
Method: as §1, §2, §3, §4

human IL-1β = test: Inhibition of IL-1β production by stimulated human peripheral blood leukocytes in vitro (ELISA); settings: Homo sapiens, Leukocyte, PBL, read-out: Percentage of inhibition of IL-1β production; for inhibition at 10 µM: compound 10 μM; for inhibition at 50 µM: compound 50 μM
Method: as §1, §2, §3, §4

## CC[C@H]1OC(=O)[C@H](C)[C@@H](OC(=O)CCN(CC)CC)[C@H](C)[C@@H](O[C@@H]2O[C@H](C)C[C@H](N(C)C)C2O)[C@](C)(O)C[C@@H](C)CN(C)[C@H](C)[C@@H](O)[C@]1(C)O (stereo in doubt) [Example 12, 3-O-(3-Diethylamino-propionyl)-3-O-decladinosyl-azithromycin]
Human IL-6; LPS stimulation
  inhibition at 10 µM: 9%
  inhibition at 50 µM: 19%
Human IL-6; PMA stimulation
  inhibition at 10 µM: 43%
  inhibition at 50 µM: 93%
Human IL-6; zymosan stimulation
  inhibition at 10 µM: 0%
  inhibition at 50 µM: 96%
Hep G2; 12.5 μM
  Percentage of viable cells after treatment: >95%
Hep G2; 50 μM
  Percentage of viable cells after treatment: >90%
A549; 12.5 μM
  Percentage of viable cells after treatment: >90%
A549; 50 μM
  Percentage of viable cells after treatment: >90%
THP-1; 12.5 μM
  Percentage of viable cells after treatment: >90%
THP-1; 50 μM
  Percentage of viable cells after treatment: 100%
Human TNF-α; LPS stimulation
  inhibition at 10 µM: 22%
  inhibition at 50 µM: 0%
Human TNF-α; PMA stimulation
  inhibition at 10 µM: 30%
  inhibition at 50 µM: 75%
Human TNF-α; zymosan stimulation
  inhibition at 10 µM: 33%
  inhibition at 50 µM: 0%
Human IL-8; LPS stimulation
  inhibition at 10 µM: 16%
  inhibition at 50 µM: 51%
Human IL-8; PMA stimulation
  inhibition at 10 µM: 31%
  inhibition at 50 µM: 27%
Human IL-8; zymosan stimulation
  inhibition at 10 µM: 20%
  inhibition at 50 µM: 52%
Human IL-1β; LPS stimulation
  inhibition at 10 µM: 50%
  inhibition at 50 µM: 71%
Human IL-1β; PMA stimulation
  inhibition at 10 µM: 54%
  inhibition at 50 µM: 92%
Human IL-1β; zymosan stimulation
  inhibition at 10 µM: 29%
  inhibition at 50 µM: 72%

## CC[C@H]1OC(=O)[C@H](C)[C@@H](OC(=O)CCN2CCN(CCN(C)C)CC2)[C@H](C)[C@@H](O[C@@H]2O[C@H](C)C[C@H](N(C)C)[C@H]2O)[C@](C)(OC)C[C@@H](C)C(=O)N[C@H](C)[C@@H](O)[C@]1(C)O [Example 19, 6-O-Methyl-3-O-decladinosyl-3-O-{3-[4-(2-Dimethylamino-ethyl)-piperazin-1-yl]-propionyl}-9a-aza-9a-homoerythromycin A]
Human IL-6; LPS stimulation
  inhibition at 10 µM: 16%
  inhibition at 50 µM: 56%
Human IL-6; PMA stimulation
  inhibition at 10 µM: 56%
  inhibition at 50 µM: 61%
Human IL-6; zymosan stimulation
  inhibition at 10 µM: 19%
  inhibition at 50 µM: 44%
Hep G2; 12.5 μM
  Percentage of viable cells after treatment: 100%
Hep G2; 50 μM
  Percentage of viable cells after treatment: 100%
A549; 12.5 μM
  Percentage of viable cells after treatment: 100%
A549; 50 μM
  Percentage of viable cells after treatment: >95%
THP-1; 12.5 μM
  Percentage of viable cells after treatment: 100%
THP-1; 50 μM
  Percentage of viable cells after treatment: 100%
Human TNF-α; LPS stimulation
  inhibition at 10 µM: 11%
  inhibition at 50 µM: 7%
Human TNF-α; PMA stimulation
  inhibition at 10 µM: 53%
  inhibition at 50 µM: 82%
Human TNF-α; zymosan stimulation
  inhibition at 10 µM: 18%
  inhibition at 50 µM: 12%
Human IL-8; LPS stimulation
  inhibition at 10 µM: 6%
  inhibition at 50 µM: 32%
Human IL-8; PMA stimulation
  inhibition at 10 µM: 14%
  inhibition at 50 µM: 0%
Human IL-8; zymosan stimulation
  inhibition at 10 µM: 9%
  inhibition at 50 µM: 26%
Human IL-1β; LPS stimulation
  inhibition at 10 µM: 44%
  inhibition at 50 µM: 73%
Human IL-1β; PMA stimulation
  inhibition at 10 µM: 66%
  inhibition at 50 µM: 86%
Human IL-1β; zymosan stimulation
  inhibition at 10 µM: 35%
  inhibition at 50 µM: 80%

## CC[C@H]1OC(=O)[C@H](C)[C@@H](OC(=O)CCN(CC)CC)[C@H](C)[C@@H](O[C@@H]2O[C@H](C)C[C@H](NC)[C@@H]2O)[C@](C)(OC)C[C@@H](C)C(=O)N[C@H](C)[C@@H](O)[C@]1(C)O [Example 10, 3-O-(3-Diethylamino-propionyl)-3-O-decladinosyl-3′-N-demethyl-6-O-methyl-9a-aza-9a-homoerythromycin A]
Human IL-6; LPS stimulation
  inhibition at 10 µM: 35%
  inhibition at 50 µM: 92%
Human IL-6; PMA stimulation
  inhibition at 10 µM: 69%
  inhibition at 50 µM: 92%
Human IL-6; zymosan stimulation
  inhibition at 10 µM: 40%
  inhibition at 50 µM: 100%
Hep G2; 12.5 μM
  Percentage of viable cells after treatment: 100%
Hep G2; 50 μM
  Percentage of viable cells after treatment: 100%
A549; 12.5 μM
  Percentage of viable cells after treatment: >80%
A549; 50 μM
  Percentage of viable cells after treatment: >90%
THP-1; 12.5 μM
  Percentage of viable cells after treatment: 100%
THP-1; 50 μM
  Percentage of viable cells after treatment: 100%
Human TNF-α; LPS stimulation
  inhibition at 10 µM: 6%
  inhibition at 50 µM: 65%
Human TNF-α; PMA stimulation
  inhibition at 10 µM: 68%
  inhibition at 50 µM: 78%
Human TNF-α; zymosan stimulation
  inhibition at 10 µM: 10%
  inhibition at 50 µM: 75%
Human IL-8; LPS stimulation
  inhibition at 10 µM: 13%
  inhibition at 50 µM: 77%
Human IL-8; PMA stimulation
  inhibition at 10 µM: 23%
  inhibition at 50 µM: 76%
Human IL-8; zymosan stimulation
  inhibition at 10 µM: 6%
  inhibition at 50 µM: 82%
Human IL-1β; LPS stimulation
  inhibition at 10 µM: 70%
  inhibition at 50 µM: 88%
Human IL-1β; PMA stimulation
  inhibition at 10 µM: 80%
  inhibition at 50 µM: 94%
Human IL-1β; zymosan stimulation
  inhibition at 10 µM: 78%
  inhibition at 50 µM: 100%
